Data taken from paper PMC9134235 (ACS Omega, 2022).

Tests used:
[1] = target: DOR (Homo sapiens, UniProt P41143); test: DOR-Tango β-arrestin2 recruitment, dose–response; assay type: cell-based; settings: for reversal of the agonist activity of EIPA: 10 μM EIPA, increasing antagonist; for agonist / allosteric activity at DOR: 10 μM modulator, in the presence or absence of DADLE; for effect of extracellular Na+ on agonistic activity: reducing extracellular Na+ to 30 mM
[2] = test system: different GPCRs; settings: cited from earlier work
[3] = target: DOR D95A2.50 (Homo sapiens, UniProt P41143, D95A); test: Mutant DOR-Tango β-arrestin2 recruitment; assay type: cell-based; settings: 10 μM modulator
Sequence of DOR D95A2.50 (P41143 whole entry D95A): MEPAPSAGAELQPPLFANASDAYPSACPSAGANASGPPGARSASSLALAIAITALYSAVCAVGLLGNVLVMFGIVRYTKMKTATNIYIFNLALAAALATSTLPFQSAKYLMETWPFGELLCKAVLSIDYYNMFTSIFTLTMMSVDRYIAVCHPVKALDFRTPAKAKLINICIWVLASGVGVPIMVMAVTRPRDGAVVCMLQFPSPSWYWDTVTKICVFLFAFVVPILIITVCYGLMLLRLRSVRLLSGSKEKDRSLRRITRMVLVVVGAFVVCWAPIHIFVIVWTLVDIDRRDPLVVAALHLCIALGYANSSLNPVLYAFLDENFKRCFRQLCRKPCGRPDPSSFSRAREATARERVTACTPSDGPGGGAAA

[4] = target: DOR chimera KOR-TM1 (Homo sapiens, UniProt P41143+P41145, A58V/A61V/C60F/G73V/L55V/L65V/V68S/V75I); test: Chimera DOR-Tango β-arrestin2 recruitment; assay type: cell-based; settings: 10 μM modulator
[5] = test system: gonadotropin-releasing hormone receptor (GnRHR); settings: 10 μM; cited from earlier work
[6] = target: DOR WT (Homo sapiens, UniProt P41143); test: 3H-DADLE competition binding; settings: binding experiment in allosteric mode
Sequence of DOR WT (P41143 whole entry): as the sequence (P41143 whole entry D95A) above, with A95D counted along it

[7] = test system: cells; test: Toxicity to cells; assay type: cell-based, human; settings: at 10 μM
[8] = target: DOR N131V3.35 (Homo sapiens, UniProt P41143, N131V); test: Mutant DOR-Tango β-arrestin2 recruitment; assay type: cell-based; settings: 10 μM
Sequence of DOR N131V3.35 (P41143 whole entry N131V, one chain of several): as the sequence (P41143 whole entry D95A) above, with A95D, N131V counted along it

[9] = target: DOR S135A3.39 (Homo sapiens, UniProt P41143, S135A); test: Mutant DOR-Tango β-arrestin2 recruitment; assay type: cell-based; settings: 10 μM
Sequence of DOR S135A3.39 (P41143 whole entry S135A, one chain of several): as the sequence (P41143 whole entry D95A) above, with A95D, S135A counted along it

[10] = test system: rat mu-opioid; settings: ref Tracey et al.[45]; cited from earlier work
[11] = test system: mouse delta-opioid; settings: ref Tracey et al.[45]; cited from earlier work
[12] = test system: kappa-opioid receptor; settings: ref Tracey et al.[45]; cited from earlier work
[13] = target: T1, M2 muscarinic receptor (Homo sapiens, UniProt P08172); test: M2-Tango β-arrestin2 recruitment, carbachol dose–response; assay type: cell-based; settings: external Na+ increased to 200 mM
T1 sequence (P08172 1-466): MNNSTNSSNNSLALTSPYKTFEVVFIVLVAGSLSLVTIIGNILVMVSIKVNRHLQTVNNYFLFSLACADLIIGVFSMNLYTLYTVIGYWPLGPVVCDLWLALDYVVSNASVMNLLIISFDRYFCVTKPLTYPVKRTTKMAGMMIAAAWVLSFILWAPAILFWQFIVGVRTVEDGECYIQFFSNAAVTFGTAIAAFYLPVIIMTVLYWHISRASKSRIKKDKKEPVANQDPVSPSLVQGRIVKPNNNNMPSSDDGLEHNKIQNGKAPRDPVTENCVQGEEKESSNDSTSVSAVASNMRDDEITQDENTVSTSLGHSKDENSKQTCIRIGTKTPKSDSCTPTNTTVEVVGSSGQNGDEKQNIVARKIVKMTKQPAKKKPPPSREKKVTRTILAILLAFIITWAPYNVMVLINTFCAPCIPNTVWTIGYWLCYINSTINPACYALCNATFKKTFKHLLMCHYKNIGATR

[14] = target: T2, M4 muscarinic receptor (Homo sapiens, UniProt P08173); test: M4-Tango β-arrestin2 recruitment, carbachol dose–response; assay type: cell-based; settings: external Na+ increased to 200 mM
T2 sequence (P08173 1-479): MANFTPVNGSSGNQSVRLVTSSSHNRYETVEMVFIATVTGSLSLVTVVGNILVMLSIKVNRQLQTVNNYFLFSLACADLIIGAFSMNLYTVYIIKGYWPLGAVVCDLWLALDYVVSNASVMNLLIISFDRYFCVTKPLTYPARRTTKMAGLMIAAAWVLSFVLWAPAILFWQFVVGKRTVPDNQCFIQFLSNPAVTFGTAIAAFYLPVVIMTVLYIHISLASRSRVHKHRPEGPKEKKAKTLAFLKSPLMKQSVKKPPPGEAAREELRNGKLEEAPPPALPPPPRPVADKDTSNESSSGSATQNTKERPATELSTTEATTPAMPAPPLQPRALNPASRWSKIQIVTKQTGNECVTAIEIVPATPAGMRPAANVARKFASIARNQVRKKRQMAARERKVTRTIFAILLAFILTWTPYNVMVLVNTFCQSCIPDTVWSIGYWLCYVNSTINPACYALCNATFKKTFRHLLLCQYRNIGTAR

[15] = target: T3, M5 muscarinic receptor (Homo sapiens, UniProt P08912); test: M5-Tango β-arrestin2 recruitment, carbachol dose–response; assay type: cell-based; settings: external Na+ increased to 200 mM
T3 sequence (P08912 1-532): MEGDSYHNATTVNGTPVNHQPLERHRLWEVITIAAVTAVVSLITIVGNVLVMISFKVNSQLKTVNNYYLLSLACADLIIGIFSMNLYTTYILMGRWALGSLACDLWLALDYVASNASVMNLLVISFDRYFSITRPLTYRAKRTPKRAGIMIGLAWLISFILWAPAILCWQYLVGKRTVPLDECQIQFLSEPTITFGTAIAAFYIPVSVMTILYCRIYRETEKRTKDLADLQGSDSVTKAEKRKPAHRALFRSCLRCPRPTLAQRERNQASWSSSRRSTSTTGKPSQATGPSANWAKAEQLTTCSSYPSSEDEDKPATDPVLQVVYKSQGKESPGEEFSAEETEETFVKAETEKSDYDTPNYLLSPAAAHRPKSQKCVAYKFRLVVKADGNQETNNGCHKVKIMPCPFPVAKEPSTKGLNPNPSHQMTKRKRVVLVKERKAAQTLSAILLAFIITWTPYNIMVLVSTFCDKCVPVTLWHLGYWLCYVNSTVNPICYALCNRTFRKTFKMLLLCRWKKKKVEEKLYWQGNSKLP

Sequence of DOR (P41143 whole entry): as the sequence (P41143 whole entry D95A) above, with A95D counted along it

NC(N)=Nc1ccc2[nH]c3c(c2c1)C[C@@]1(O)[C@H]2Cc4ccc(O)c5c4[C@@]1(CCN2CC1CC1)[C@H]3O5 [5′-GNTI]
reversal of the agonist activity of EIPA [1]: reversed

NC(N)=Nc1ccc2c3c([nH]c2c1)[C@@H]1Oc2c(O)ccc4c2[C@@]12CCN(CC1CC1)[C@H](C4)[C@]2(O)C3 [6′-GNTI]
reversal of the agonist activity of EIPA [1]: reversed

N=C(N)NC(=O)c1nc(Cl)c(N)nc1N [Amiloride, amiloride]
agonist / allosteric activity at DOR [1]: no activity | affinity ([2]; allosteric modulation on different GPCRs): > 10 µM | concentration with activity in biophysical studies ([2]; most biophysical studies using amiloride): > 100 µM

CN(C)c1nc(N)c(C(=O)NC(=N)N)nc1Cl [DMA, 5-(N,N-dimethyl)amiloride]
agonist / allosteric activity at DOR [1]: lack of DMA activity

CCN(c1nc(N)c(C(=O)N=C(N)N)nc1Cl)C(C)C [EIPA, 5-(N-ethyl-N-isopropyl)-amiloride]
agonist / allosteric activity at DOR [1]: significant agonist and positive allosteric modulation (ago-PAM)

NC(N)=NC(=O)c1nc(Cl)c(N2CCCCCC2)nc1N [HMA, 5-(N,N-hexamethylene)amiloride]
effect of extracellular Na+ on agonistic activity [1]: slightly increases | modulator properties at mutant [3]: almost complete loss of original properties | allosteric modulation (PAM) at chimera [4]: loss of allosteric modulation (PAM) | functional effect [5]: modest effect

CC(C)CN(C)c1nc(N)c(C(=O)N=C(N)N)nc1Cl [MIA, 5-(N-methyl-N-isobutyl)amiloride]
agonist / allosteric activity at DOR [1]: best ago-PAM | effect of extracellular Na+ on agonistic activity [1]: slightly increases | modulator properties at mutant [3]: almost complete loss of original properties | allosteric modulation (PAM) at chimera [4]: loss of allosteric modulation (PAM) | effect on the Ki of naltrindole toward 3H-DADLE [6]: no effect

Oc1ccc2c3c1O[C@H]1c4[nH]c5ccccc5c4C[C@@]4(O)[C@@H](C2)N(CC2CC2)CC[C@]314 [Naltrindole, naltrindole]
reversal of the agonist activity of EIPA [1]: reversed

NC(=Nc1ccccc1)NC(=O)c1nc(Cl)c(N)nc1N [Phenamil, phenamil]
agonist / allosteric activity at DOR [1]: inactive

N=C(N)NC(=O)c1cnn(-c2cccc3ncccc23)c1C1CC1 [Zoniporide, zoniporide]
agonist / allosteric activity at DOR [1]: best PAM without intrinsic agonist activity | toxicity [7]: no toxicity | modulator properties at mutant [3]: almost complete loss of original properties | allosteric modulation (PAM) at chimera [4]: loss of allosteric modulation (PAM) | ago-PAM properties at mutant [8]: increase in the ago-PAM properties | ago-PAM properties at mutant [9]: increase in the ago-PAM properties | affinity [10]: 60 nM | affinity [11]: 238 nM | interaction [12]: no detectable interaction

C[N+](C)(C)CCOC(N)=O [carbachol]
increase of efficacy [13]: more than 3 fold | increase of efficacy [14]: more than 3 fold | increase of efficacy [15]: weakly increasing efficacy
